Assay results published in US20260048041A1, “COMPOSITION FOR REMOVING HELICOBACTER PYLORI COMPRISING ZASTAPRAZAN OR PHARMACEUTICALLY ACCEPTABLE SALT THEREOF” (JEIL PHARMACEUTICAL CO., LTD., priority 2022, published 2026).

What was measured:
[1] = test system: Helicobacter pylori (ATCC43504); assay: Anti-H. pylori in vitro efficacy test, MIC and MBC by microdilution (CLSI); format: cell-based; conditions: strain 43504, unit not given in table (method uses μg/mL); for MIC: 3 days, microaerobic
Protocol: (§1) Helicobacter pylori (ATCC43504): Type strain for antibiotic susceptibility testing according to the Clinical & Laboratory Standards Institute (CLSI) guidelines. An antibiotic susceptibility testing was performed using the microdilution method according to the CLSI guideline. […] The bacteria were inoculated into wells containing only medium without antibiotics to prepare the positive control group, and the wells containing only medium without antibiotics or inoculated bacteria were used as the negative control group. The concentration range of the test substances, zastaprazan (JP-1366) and fexuprazan, was determined through preliminary experiments. […] The lowest concentration at which no bacterial growth was observed was determined as the MIC. […] The lowest concentration at which no bacteria growth occurred was determined as the MBC. […] All tests were performed in duplicate, and the results were determined by conducting the experiments in triplicate.

[2] = test system: Helicobacter pylori 26695 (ATCC700329); assay: as above; format: cell-based; conditions: strain 26695; unit not given in table (method uses μg/mL)
Protocol: as §1, with “26695 (ATCC700329): A” for “(ATCC43504): Type”, “strain isolated from a patient known to be associated with the development of gastric cancer. The strain is cytotoxin associated gene (CagA)-positive and vacuolating cytotoxin (VacA)-positive and has a well-known genetic background, so it is mainly used” for “strain”, “research purposes.” for “antibiotic susceptibility testing according to the Clinical & Laboratory Standards Institute (CLSI) guidelines.”

[3] = test system: Helicobacter pylori SS1 (mouse colonizing strain); assay: as above; format: cell-based
Protocol: as §1, with “SS1 (mouse colonizing strain): A” for “(ATCC43504): Type”, “known as Sydney strain. The strain is CagA-positive and VacA-positive and has been confirmed” for “for antibiotic susceptibility testing according”, “infect and colonize in C57BL/6 mice. The strain is used in animal testing.” for “the Clinical & Laboratory Standards Institute (CLSI) guidelines.”

[4] = test system: Helicobacter pylori SS1 (mouse colonizing strain); assay: Efficacy of JP-1366 to enhance antibacterial activity of clarithromycin, MIC and MBC by microdilution; format: cell-based; conditions: H. pylori SS1
Protocol: Helicobacter pylori SS1 (mouse colonizing strain): Known as Sydney strain, the strain is […] and VacA-positive, and has been confirmed to colonize mice C57BL/6 and is used in animal experiments.
An antibiotic susceptibility test was performed by the microdilution method according to CLSI guideline.
The antibiotic susceptibility test was performed using MH broth (7% horse serum, 0.4% IsoVitalex), and the susceptibility test medium for zastaprazan (JP-1366) was prepared at this time. […] Using the medium prepared in this way, clarithromycin was serially diluted 2-fold and in 16 steps, with a maximum concentration of 16 μg/mL. Wells containing only the medium without antibiotics were used as a negative control group, and wells inoculated only with the bacteria in the medium without antibiotics were used as a positive control group. H. pylori stored in a deep freezer (−70° C. or lower) was inoculated onto BHI agar (w/7% laked horse blood, 0.4% IsoVitalex) and cultured for three days at 37° C. under microaerophilic conditions (Oxoid CampyGene gas pk) and then subcultured onto a fresh medium. The cultured bacteria were harvested, suspended in PBS, and inoculated into each well at a concentration of 5×10^5 CFU/mL. Thereafter, the bacteria were cultured for three days at 37° C. under microaerophilic conditions of 5% 02, 10% CO2, and 85% N2 gas. The lowest concentration of the sample at which no bacterial growth was observed was determined as the MIC. […] The lowest concentration at which no bacterial growth was observed was determined as the minimum bactericidal concentration(MBC).

[5] = Drug interaction (PK) trial of JP-1366, amoxicillin and clarithromycin in healthy adult volunteers; format: in vivo, human
From the text: Test drug and administration period A. Test drug 1: […] Jeil Pharmaceutical • Dose: […] Oral B. […] Selection and classification of clinical trial subjects […]

[6] = test system: patients with erosive gastroesophageal reflux disease; assay: Phase 2 clinical trial, healing of mucosal breaks and symptoms; format: in vivo, human
Protocol: H. pylori testing was performed by 13C-urea breath test (13C-UBT), gastroscopy (Campylobacter-like organism test, CLO), or tissue biopsy to confirm H. pylori positivity/negativity. The testing was performed at the screening visit (Visit 1) or the randomization visit (Visit 2), and results from the same institution within 29 days prior to the randomization visit (Visit 2) could be substituted. This clinical trial was a randomized, double-blind, active-controlled, multicenter, phase 2 clinical trial targeting patients with erosive gastroesophageal reflux disease. After the subjects gave written consent to participate in the clinical trial, a screening test was conducted. […] At this time, the subjects were stratified by grade (A, B, C, D) according to the LA classification system classified by upper gastrointestinal endoscopy. Randomly assigned subjects took the clinical trial drug once a day according to the assigned administration group for four weeks. After four weeks of administration of the clinical trial drug, the subjects visited the clinical trial institution to undergo an upper gastrointestinal endoscopy to assess whether they were healed. Healed subjects underwent a Safety Follow-Up (F/U) two weeks later, and unhealed subjects were administered the clinical trial drug for additional four weeks (a total of 8 weeks of administration) and visited the clinical trial institution to undergo an upper gastrointestinal endoscopy. […] 3.

[7] = Solubility seen during MIC analysis; format: physicochemical; conditions: in MIC medium; suspension formed, MIC analysis difficult
From the text: Referring to Table 4 below, since the solubility of zastaprazan (JP-1366) was low, the MIC analysis was difficult (poor solubility, formation of suspension, interference in visual/absorbance analysis), so the inhibitory effect on the H. pylori strains was confirmed through the MBC index.

[8] = strain SS1, unit not given in table (method uses μg/mL)
[9] = MH medium + JP1366 at ½ MIC concentration, unit not given
[10] = MH medium, unit not given in table (method uses μg/mL)
[11] = JP-1366, three-drug regimen vs JP-1366 alone

Row | SMILES | MIC [1] | MBC [1] | MBC [2] | MIC [2] | MBC [3, 8] | MIC [3, 8] | also measured
1 | CC1(C)S[C@@H]2[C@H](NC(=O)[C@H](N)c3ccc(O)cc3)C(=O)N2[C@H]1C(=O)O [Amoxicillin] | 0.016~0.032 | 0.032 | 0.032 | 0.016~0.032 | 0.25 | – | –
2 | CC[C@H]1OC(=O)[C@H](C)[C@@H](O[C@H]2C[C@@](C)(OC)[C@@H](O)[C@H](C)O2)[C@H](C)[C@@H](O[C@@H]2O[C@H](C)C[C@H](N(C)C)[C@H]2O)[C@](C)(OC)C[C@@H](C)C(=O)[C@H](C)[C@@H](O)[C@]1(C)O [Clarithromycin] | 0.032 | 0.063 | 0.125 | 0.063~0.125 | 0.125 | 0.032 | MBC [4, 9]: 0.032 to 0.063; MIC [4, 9]: 0.032 to 0.063; MBC [4, 10]: 0.063 to 0.125; MIC [4, 10]: 0.032 to 0.063; lowering of MBC in medium containing JP1366 ([4]; medium with zastaprazan (JP1366) at ½ MIC concentration vs MH medium): about ½
3 | CNCc1cn(S(=O)(=O)c2cccc(F)c2)c(-c2ccc(F)cc2F)c1OC [Fexuprazan] | 64 | 64~128 | 64~128 | 64 | 64~128 | 64 | –
4 | Cc1cccc(C)c1CNc1cc(C(=O)N2CCC2)cn2c(C)c(C)nc12.O=C(O)CC(O)(CC(=O)O)C(=O)O [JP-1366, azetidin-1-yl{8-[(2,6-dimethylbenzyl)amino]-2,3-dimethylimidazo[1,2-a]pyridin-6-yl}methanone citrate salt] | – | 8~32 | 16~32 | – | 16~32 | – | AUCT higher when T3 was administered compared to T1 [5, 11]: approximately 2.4 times; AUCτ, Geometric LS Mean Ratio (T3/T1), Point Estimate [5, 11]: 2.4422; Cmax, ss higher when T3 was administered compared to T1 [5, 11]: approximately 1.8 times; Cmax, ss, Geometric LS Mean Ratio (T3/T1), Point Estimate [5, 11]: 1.7766; Cmax ([5]; human, in vivo, JP-1366 after T1: JP-1366 20 mg 1 capsule alone, twice daily, 5 days, oral, N = 24, read-out: Cmax, ss, Geometric LS Mean): 156 ng/mL; increase of area under the concentration-time curve (AUCT) compared to single administration ([5]; zastaprazan combined with amoxicillin and clarithromycin): more than twofold; healing effect compared with Nexium 40 mg ([6]; H. pylori-negative group, 20 mg): the same effect as Nexium 40 mg; symptoms (heartburn, acid reflux, heartburn/acid reflux) within 24 hours and for seven days after administration ([6]; JP-1366 5 mg two capsules (10 mg) once a day): all symptoms tended to be ameliorated; symptoms (heartburn, acid reflux, heartburn/acid reflux) within 24 hours and for seven days after administration ([6]; JP-1366 20 mg one capsule once a day): all symptoms tended to be ameliorated; MBC ([3]; Helicobacter pylori, stated in Example 5 method, H. pylori SS1, read-out: maximum MBC value): 32 µg/mL; solubility [7]: low
5 | COc1ccc2[nH]c([S+]([O-])Cc3ncc(C)c(OC)c3C)nc2c1 (stereo not drawn) [Omeprazole] | 32 | 64 | 64~128 | 32~64 | 64~128 | 32~64 | –
